Assay results from patent publication US20230002397A1, “SMALL MOLECULE DEGRADERS OF HELIOS AND METODS OF USE” (DANA-FARBER CANCER INSTITUTE, INC., priority 2019, published 2023).

Target: T1, IKZF2 (Homo sapiens, UniProt Q96SW2+Q9UKS7)
T1 construct: CRISPR/Cas9—mediated insertion of the HiBiT peptide tag (Promega™) to the N-terminus of the IKZF2 gene locus; endogenous in cells; host or cells: MOLT4 cells, with CRISPR/Cas9 knock-in of HiBiT at the endogenous IKZF2 locus
Test: HiBit-IKZF2 assay (HiBiT-Helios degradation in MOLT4 cells)
Format: cell-based
Conditions: for Dmax: MOLT-4, extent of degradation from highest to lowest concentration, 10 μM to 0.00026 μM, read-out: Dmax; for DC50: concentration at which 50% of HiBiT-Helios degradation was achieved
How it was run: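 MOLT4 cells carried an endogenous N-terminal HiBiT tag on IKZF2, knocked in by CRISPR. Cells were treated in triplicate at 13 concentrations (10 μM–0.00026 μM), and remaining HiBiT-Helios was read by lytic luminescence at set timepoints. Data were normalized to DMSO to give the 50% degradation concentration, with Dmax taken from the luminescence range.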

T1 sequence (Q9UKS7 whole entry): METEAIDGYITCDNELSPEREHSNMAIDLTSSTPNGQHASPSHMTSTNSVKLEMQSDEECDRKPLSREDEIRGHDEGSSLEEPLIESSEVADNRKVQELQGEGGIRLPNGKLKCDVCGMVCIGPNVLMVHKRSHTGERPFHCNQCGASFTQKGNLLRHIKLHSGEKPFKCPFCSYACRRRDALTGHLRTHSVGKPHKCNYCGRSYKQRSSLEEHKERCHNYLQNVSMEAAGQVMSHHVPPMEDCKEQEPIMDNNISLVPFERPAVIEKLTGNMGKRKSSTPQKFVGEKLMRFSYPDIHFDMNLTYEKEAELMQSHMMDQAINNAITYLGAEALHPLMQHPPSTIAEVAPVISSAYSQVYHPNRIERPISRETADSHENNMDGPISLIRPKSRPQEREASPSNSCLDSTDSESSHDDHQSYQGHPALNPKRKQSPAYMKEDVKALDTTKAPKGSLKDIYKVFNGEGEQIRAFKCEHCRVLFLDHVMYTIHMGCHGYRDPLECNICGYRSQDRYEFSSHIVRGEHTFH
T1 sequence (Q96SW2 whole entry): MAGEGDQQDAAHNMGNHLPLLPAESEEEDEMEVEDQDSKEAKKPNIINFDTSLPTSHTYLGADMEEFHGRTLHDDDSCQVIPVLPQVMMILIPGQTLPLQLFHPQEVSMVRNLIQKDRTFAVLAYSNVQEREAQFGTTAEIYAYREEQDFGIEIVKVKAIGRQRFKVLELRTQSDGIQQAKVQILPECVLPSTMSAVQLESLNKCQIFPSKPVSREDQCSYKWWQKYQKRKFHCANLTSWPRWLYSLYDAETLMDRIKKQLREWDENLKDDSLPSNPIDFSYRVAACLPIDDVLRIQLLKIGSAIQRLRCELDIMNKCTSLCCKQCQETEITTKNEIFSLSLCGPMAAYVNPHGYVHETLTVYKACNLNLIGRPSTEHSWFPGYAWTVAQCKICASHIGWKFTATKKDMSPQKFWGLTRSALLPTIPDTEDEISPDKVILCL
T1 sequence (Q16531 whole entry partner): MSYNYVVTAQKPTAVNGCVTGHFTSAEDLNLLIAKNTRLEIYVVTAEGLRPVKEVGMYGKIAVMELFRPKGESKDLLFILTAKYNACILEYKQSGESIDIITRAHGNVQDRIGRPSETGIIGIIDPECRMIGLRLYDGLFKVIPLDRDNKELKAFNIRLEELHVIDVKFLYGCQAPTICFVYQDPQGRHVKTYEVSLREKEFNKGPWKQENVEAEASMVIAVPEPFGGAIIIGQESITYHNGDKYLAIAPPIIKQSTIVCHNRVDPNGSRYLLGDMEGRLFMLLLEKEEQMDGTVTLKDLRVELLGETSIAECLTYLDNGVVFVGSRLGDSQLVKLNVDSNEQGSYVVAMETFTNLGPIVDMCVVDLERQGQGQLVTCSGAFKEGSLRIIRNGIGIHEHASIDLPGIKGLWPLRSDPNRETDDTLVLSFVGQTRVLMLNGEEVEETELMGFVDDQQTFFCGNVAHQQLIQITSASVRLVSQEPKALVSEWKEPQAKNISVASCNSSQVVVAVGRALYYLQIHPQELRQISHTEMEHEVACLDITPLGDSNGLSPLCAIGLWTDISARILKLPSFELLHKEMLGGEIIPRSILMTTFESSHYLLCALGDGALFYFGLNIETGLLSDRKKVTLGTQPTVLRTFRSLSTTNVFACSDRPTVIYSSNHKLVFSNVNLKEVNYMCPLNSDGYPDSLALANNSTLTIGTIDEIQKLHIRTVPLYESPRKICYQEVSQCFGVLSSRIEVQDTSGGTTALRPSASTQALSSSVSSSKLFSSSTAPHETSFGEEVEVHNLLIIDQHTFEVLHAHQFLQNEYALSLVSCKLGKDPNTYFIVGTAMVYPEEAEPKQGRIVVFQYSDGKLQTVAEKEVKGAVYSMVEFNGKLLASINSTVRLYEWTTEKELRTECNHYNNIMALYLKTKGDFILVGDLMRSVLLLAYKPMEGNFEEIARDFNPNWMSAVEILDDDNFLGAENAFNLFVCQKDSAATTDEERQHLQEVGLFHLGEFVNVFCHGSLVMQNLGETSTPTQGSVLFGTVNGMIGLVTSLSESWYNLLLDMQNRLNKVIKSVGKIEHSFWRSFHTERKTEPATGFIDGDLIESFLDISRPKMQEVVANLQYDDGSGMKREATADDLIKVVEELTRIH

SMILES | Dmax [%] | DC50 [nM]
O=C1CCC(N2Cc3cc(C4(O)CCN(Cc5ccc6c(c5)OC(F)(F)O6)CC4)ccc3C2=O)C(=O)N1 (stereo not drawn) [Compound 271] | > 70 | < 10
O=C1CCC(N2Cc3cc(C4(O)CCN(Cc5ccccc5)C4)ccc3C2=O)C(=O)N1 (stereo not drawn) [Compound 210] | 30 to 50 | 30 to 150
O=C1CCC(N2Cc3cc(C4CCN(Cc5ccc6c(c5)C(=O)N(c5ccccc5)CC6)CC4)ccc3C2=O)C(=O)N1 (stereo not drawn) [Compound 105, 3-(1-oxo-5-(1-((1-oxo-2-phenyl-1,2,3,4-tetrahydroisoquinolin-7-yl)methyl)piperidin-4-yl)isoindolin-2-yl)piperidine-2,6-dione] | 50 to 70 | < 10
COc1ccccc1CN1CCC(O)(c2ccc3c(c2)CN(C2CCC(=O)NC2=O)C3=O)CC1 (stereo not drawn) [Compound 263] | > 70 | < 10
O=C1CCC(N2Cc3cc(C4(O)CCN(Cc5nc6ccccc6s5)CC4)ccc3C2=O)C(=O)N1 (stereo not drawn) [Compound 260] | 50 to 70 | 10 to 30
O=C1CCC(N2Cc3cc(C4(O)CCN(Cc5ccc(Cl)cc5)CC4)ccc3C2=O)C(=O)N1 (stereo not drawn) [Compound 268] | > 70 | < 10
